The subject of experiment [1] is NIH 3T3, A-431, MDA-MB-468, PANC-1, human keratinocytes. The experiment in a line: Growth of non-hematopoietic cell lines. To be noted: at high concentrations at which Jurkat and PBMC growth was strongly inhibited. The format is cell-based. The method, then: The inhibitor-treated cultures and controls were fixed in glutaraldehyde, 0.05% final concentration, for 10 min at room temperature. After washing, the plates were stained with 0.1% methylene blue in 0.1 M borate buffer, for 60 min at room temperature. The plates were rigorously washed to remove excess dye and dried. The dye taken up by cells was eluted in 0.1N HCl for 60 min at 37° C., and the OD of the solution was read at 620 nm. In preliminary titration experiments, linear readings were obtained for 1×10^3 to 4×10^4 cells/well.
To characterize the mode of action of 2 (S101) in more detail, we first examined whether 2 inhibits non-hematopoietic cell lines. We studied the effect of 2 on the growth of four cell lines: NIH 3T3 (mouse embryonic fibroblasts), A-431 (human vulval carcinoma cells), MDA-MB-468 (human breast carcinoma cells), and PANC-1 (human pancreatic carcinoma cells) (FIGS. 1A-B). We also tested the inhibitors on human keratinocytes. […] We also examined the effect of 2 on BrdU uptake by stimulated and non-stimulated PC-3 (human prostate cancer), HEK293 (human embryonic kidney), NIH-3T3, A375 (human malignant melanoma), and MDA-MB-231 (human breast adenocarcinoma).

In another experiment the test system is Jurkat cells. The experiment in a line: Jurkat cell proliferation, BrdU incorporation. To be noted: BrdU uptake. The format is cell-based, human. The method, then: Cells were depleted of fetal calf serum (FCS) for 12 hours. They were then stimulated to proliferate by addition of ConA (10 μg/ml) for PBMC from healthy individuals and for Jurkat cells, FCS (10%) for HEK293 and A375 cells, PDGF (30 ng/ml) for NIH 3T3 cells, and EGF (30 ng/ml) for MDA-MB-231, Cells (1×10^5) were cultured in 96-well plates for 3 days in the presence or absence of inhibitors at the concentrations specified in the text. Each condition was tested in duplicate wells.
Proliferation was assessed by BrdU incorporation using a colorimetric ELISA kit (Roche, Germany). Subsequent to labeling with 10 μM BrdU, DNA was denatured and the cells were incubated with anti-BrdU-POD, prior to the addition of colorimetric substrate (TMB). The reaction product was quantified by measuring absorbance at 450 nm in an ELISA plate reader (ELx800 BIO-TEK Instruments Inc.).
Since we were not prejudiced towards any specific protein kinase, we used a biological assay for T cell proliferation. We tested our libraries for inhibition of proliferation of PBMC and Jurkat cells (Table 3). Cell proliferation was measured by BrdU uptake. […] PBMC cells were stimulated by a non-specific T cell mitogen, Concanavalin A (ConA). All of the compounds that were tested inhibited proliferation at micromolar or sub-micromolar concentrations.

In experiment [2] the test system is IL-2 secretion by Jurkat and PBMC cells. The experiment in a line: IL-2 secretion after stimulation, ELISA. The format is cell-based, human. To be noted: anti-TCR, anti-CD28, PMA, ionomycin, ConA stimulation; up to 5 μM inhibitor. How it is done: (§1) Jurkat or PBMC cells were treated for 12 h with 1 μM, 0.5 μM or no inhibitor. Cells (1×10^6) were plated in 24-well plates (Nunc) and stimulated by C305 (dilution 1:500), anti-CD28 (1:100), PMA (50 ng/ml) or ionomycin (1 μM) for 12 h. Alternately, cells were stimulated for 24, 48 and 72 h in MLR. After stimulation cells were centrifuged at 130×g for 5 minutes at room temperature.
(§2) Supernatants were collected and IL-2 was assayed using the IL-2 ELISA kit (BioSource International USA, KH0022) according to the manufacturer's instructions. Absorbance was read at 450 nm in an ELISA plate reader (ELx800 BIO-TEK Instruments Inc.).
Jurkat cells, which originate from leukemia, divide with no need of exogenous IL-2 stimulation since they produce their own, whereas PBMC proliferation requires exogenous IL-2 for growth. As expected, IL-2 secretion levels were lower in cells isolated from the blood (PBMC) than in Jurkat cells (FIGS. 5A-B). We analyzed the effect of 2 on IL-2 secretion in both Jurkat (FIG. 5A) and PBMC (FIG. 5B) cells, using a variety of T cell stimuli. Cells were stimulated with an antibody to the TCR alone or in combination with anti-CD28 or phorbol 12-myristate 13-acetate (PMA). In order to bypass the TCR, we also stimulated the cells with a combination of ionomycin, PMA and anti-CD28 (FIG. 5A). […]

A further experiment deals with 2C (stimulated) cells. The experiment in a line: MLR with resting control cells, stimulated 2C cells. It is filed as cell-based, mouse. The following applies: 0.5 μM, 72 h MLR with IL-7; no inhibitor 3805. The source says: The aim of this test was to determine whether 2 affects only the proliferating cells or there is a general mechanism affecting all cell numbers. For this purpose we mixed 3 cell types: […]: BALB/c, 2C and OT1; […]: CB6F1, TEA and OT2. The OT1 and OT2 are splenocytes that were isolated from OT1 and OT2 mice (Jackson Laboratories, Bar Harbor, Me.),
Thus, the ability to monitor the fate of proliferation and resting cells by FACS was enabled due to the use of the MLR described above for CD4+ and CD8+ and the addition of OT2 and OT1 splenocytes, respectively.
Proliferating cells often secrete cytokines that induce survival of neighbouring cells; since the proliferation was expected to be inhibited we added 50 ng/ml of IL-7. This concentration is sufficient to keep the cells alive, but not to induce proliferation.
Irradiated Balb splenocytes were incubated for 72 h with 2C, and OT1 splenocytes in the presence of IL-7 W/O inhibitor.
The CD4+ and CD8+ were stimulated to proliferate, whereas in the absence of specific stimuli the OT1 and OT2 cell populations were resting, and theses cells were kept alive by the administration of IL-7. […] The number of 2C and OT1 cells that were treated with 0.5 μM 2 was 286 and 1148, respectively, while the number of 2C and OT1 cells that were treated with 0.5 μM 21 (control) was 4767 and 2468, respectively. This is depicted as a bar-graph in FIG. 8C.

Experiment [3] deals with IL-2 secretion by 2C splenocytes stimulated by irradiated BALB/c splenocytes. The experiment in a line: IL-2 levels in MLR supernatants. The format is cell-based, mouse. To be noted: 24, 48 and 72 h MLR; compound 2 up to 1 μM. The method, then: In the mixed lymphocyte reaction, stimulator cells cause responder cells to proliferate, owing to alloreactivity [Reich-Zeliger et al., 2004]. Splenocytes from 2c mice were stimulated by irradiated splenocytes from BALB/c mice in the presence of the evaluated compound at the concentrations specified. Cultures were incubated for 72 hours in 96-well plates.
as §1, §2
In vivo, T cells are stimulated by neighboring cells. In order to test the effect of 2 on cell-stimulated IL-2 secretion, the supernatants of splenocytes after 24, 48 and 72 h MLR were collected and analyzed for their IL-2 levels (FIG. 5C). […] At higher concentrations, no viable cells remained.

This note sets out measurements from patent publication US8759363B2, “Quinazoline-based T cell proliferation inhibitors” (Yissum Research Development Company of the Hebrew …, priority 2010, dated 2014).

Structures are written as SMILES. “Also recorded” adds a separate entry of the source. Read-outs that look alike come from different tables or passages of the source.

In the case of `COc1cc(-c2nc(Nc3ccc(C)cc3)c3ccccc3n2)cc(OC)c1OC` [Compound 2, N-p-tolyl-2-(3,4,5-trimethoxyphenyl)quinazolin-4-amine], the “effect on growth of non-hematopoietic cell types” value in experiment [1] was “slightly affected”. For the same compound, the IC50 is 29 ± 0.23 nM in the experiment with Jurkat cells (nM ± SD, read-out: IC50 Jurkat cells proliferation inhibition); 30 nM with Jurkat cells (Homo sapiens, Jurkat, nM ± SD, read-out: IC50 Jurkat cells proliferation inhibition); 50 nM in the experiment with Jurkat cells (Homo sapiens, Jurkat, non-stimulated, read-out: IC50 of non-stimulated cells); 100 nM with Jurkat cells (Homo sapiens, Jurkat, stimulated, read-out: IC50 of stimulated cells). Besides, the “effect on IL-2 levels in the medium” value in experiment [2] is reported as “no effect; also recorded: did not affect”. Further, the “number of 2C (stimulated) cells” value in the experiment with 2C (stimulated) cells amounted to 286. In addition, the “IL-2 levels in MLR supernatants” value in experiment [3] is given as “no visible decrease”.
